Where two headings read alike, the source gives them in different places.
Experiments:
[1] = system: NMDA receptor; details: cited from earlier work; for reversal of NMDA antagonist activity / blocking effect by glycine: presence of glycine
[2] = target: T1, strychnineinsensitive glycine recognition site (NMDA receptor-ion channel complex) (Rattus norvegicus, UniProt P35439); experiment: Glycine binding assay, [3H]glycine, synaptic plasma membranes; details: 10 nM [3H]glycine, pH 7.4, rat forebrain SPM; read-out: Ki apparent, Gly
T1 construct: Synaptic plasma membranes (SPM) were prepared from rat forebrain; from tissue; host or cells: rat forebrain synaptic plasma membranes
Method: Synaptic plasma membranes (SPM) were prepared from rat forebrain and stored as previously described [J. B. Monahan and J. Michel, J. Neurochem, 48, 1699-1708 (1987)]. Frozen membranes were thawed and diluted 1:20 with 0.04% triton X-100 in 50 mM tris/acetate (pH 7.4). Following incubation at 37° C. for 30 min., the SPM were collected by centrifugation at 95,000 X g for 15 min. The pellet was resuspended in 50 mM tris/acetate (pH 7.4, triton-free) and hand-homogenized five times. The membranes were again centrifuged as above. The pellet was washed two additional times with 50 mM tris/acetate (without homogenization) and centrifuged. The final pellet was resuspended with homogenization in 50 mM tris/acetate.
In the general receptor binding assay procedure, 10 nM [^3 H]glycine was added to the appropriate concentration of the test compounds and the assay initiated by the addition of 0.2-0.4 mg of ice cold SPM. The assay, which was done in 1.5 ml centrifuge tubes, was adjusted to a total volume of 1.0 ml with all additions being made in 50 mM tris/ acetate, pH 7.4 at 4° C. After a 10 minute incubation at 2° C., the samples were centrifuged for 15 min. at 12,000 g (4° C.) in a Beckman Microfuge 12. The supernatant was aspirated and the tube tip containing the pelleted membranes cut off and agitated in 0.5 ml of Beckman BTS-450 tissue solubilizer for a minimum of 6 hours at room temperature. Beckman MP scintillation cocktail (5 ml) containing 7 ml/liter acetic acid was then added and the samples counted on a Beckman LS 5800 liquid scintillation counter with automatic corrections for quenching and counting efficiency. […] The binding of [^3 H]glycine to the SPM was analyzed using Scatchard and Hill transformations and the Ki for other compounds was determined using logit-log analysis. Calculations and regression analysis were performed using templates developed for Lotus 123 as previously described [Pullan et al, Id.].

[3] = target: T2, NMDA receptor (rat brain receptor expressed in Xenopus oocytes) (Rattus norvegicus, UniProt P35439); experiment: Xenopus oocytes injected with rat cortex mRNA, blocking of glycine effects (voltage clamp); assay type: cell-based; details: 100 μM NMDA
T2 construct: PolyA+ RNA (mRNA) was extracted from adult male rat cortex; expressed in transfected cells; host or cells: Xenopus laevis oocytes microinjected with rat cortex poly(A)+ RNA
Method: PolyA+ RNA (mRNA) was extracted from adult male rat cortex using the refined guanidinium thiocyanate method developed by Han et al [J. H. Han et al., Biochemistry, 26, 1617-1625 (1987)] and the oligo (dT) cellulose chromatography procedure of Adiv and Leder [H. Aviv et al., Proc. Nat. Acad. Sci., 69, 1408-1412 (1972)]. Aliquots of mRNA (1.0 mg/ml water) were stored at -20° C.
Gravid adult female Xenopus laevis (Xenopus One, Ann Arbor, Mich. or NASCO, Ft. Atkinson, Wis.) were anaesthetized with 0.2% (w/v) Tricaine (3-amino benzoic acid ethyl ester; Sigma) and subjected to partial ovarectomy. Excised oocytes were then prepared and microinjected [N. W. Kleckner et al, Science 241 835-837 (1988)]. Oocytes were treated for one hour in Barth's solution (88.0 mM NaCl, 1.0 mM KCl, 2.4 mM NaHCO3, 0.41 mM CaCl2, 0.82 mM MgSO4, 10.0 μg/ml penicillin, 100.0 μg/ml streptomycin, 10.0 mM HEPES, pH 7.5) containing 1.5 mg/ml Neutral Protease (Beohringer Mannheim Biochemicals, Grade II). Oocytes were then placed in Barth's solution containing 100.0 mM sucrose and manually defolliculated with fine forceps. Defolliculated oocytes were then microinjected with approximately 50 ng of mRNA in Barth's solution at 16°-18° C.
Oocytes were assayed 2-8 days later for rat brain receptor expression via single electrode voltage. clamp (Axoclamp 2A, Axon Instruments) in a manner similar to that previously described [Kleckner et al, Id.]. […] Drugs were added to the perfusate and inward currents induced by agonist compounds were measured at peak steady state response. […] Antagonist compounds were perfused for a minimum of 3.0 minutes prior to subsequent agonist co-application. Data are expressed as percent maximal response (mean±S.E.M.). Half-maximal responses (EC50 's) and slopes for dose response data were determined from the least squares fit to the logistic regression equation.

[4] = system: hippocampal slice; experiment: Epileptic hippocampal slice, 0% Mg+2-induced epilepsy; assay type: cell-based, Sprague-Dawley albino rat; details: Rattus norvegicus, 300 μM Compound No. 35, 0% Mg+2
Excerpt: Hippocampal slices (450 μ) were obtained from male Sprague-Dawley albino rats (100-325 g). The method of slice preparation has been detailed elsewhere [A. H. Ganong et al., Brain Res., 273, 170-174 (1983)]. Slices were stored in a humidified interface chamber at room temperature and bathed in artificial cerebrospinal fluid (ACSF) which contained (in mM): NaCl 124.0, KCl 5.0, KH2 PO4 1.0, NaHCOP3 26.4, CaCl2, 2.0, MgSO4 1.5 and D-glucose 10.0, and was equilibrated with 95% 02:5% CO2. When needed for study, slices were placed one at a time in a small submersion chamber maintained at 35° C. where they were continuously perfused at 1.0-2.0 ml/min. Fresh solutions reached the recording chamber within 20 seconds and the perfusate was completely changed over within a minute. Additional oxygen and stirring was provided by an air jet (95% O2 :5% CO2) directed at the surface of the ACSF. Standard electrophysiological techniques were employed. Extracellular recording electrodes were glass micropipettes filled with 2.0 M NaCl and broken back to 2.0 m.OMEGA. resistance. All recording was from the somatic region of CA1. […] Intracellular recording electrodes of 60-100 MQ resistance were filled with 2.5 M KAc. […] The Schaffer collateral/commissural fibers were stimulated with tungsten bipolar stimulating electrodes at a rate of 0.03 Hz. The resulting field EPSP (S/C-CA1 EPSP) and the DC potential were amplified by an Axoprobe 1 amplifier and were continuously monitored on a Tektronix 5111A storage oscilloscope and a Gould 2300 chart recorder with a Gould Waveform storage module. Epileptiform activity was induced by omission of Mg++ ions from the perfusate, which removes the Mg++ mediated voltage-dependent block of the NMDA. receptor [B. Ault et al., J. Physiol., 307, 413-428 (1980)], or by the addition of the GABA antagonist picrotoxin. Drugs were added to the perfusate and zero magnesium refers to solutions which contain no added magnesium. The amplitude of the stimulus evoked primary population spike was used to assess the effects of experimental manipulations on the efficacy of synaptic function.

[5] = system: Cerebellar cGMP; experiment: Assay for effect on cGMP (cerebellum, intracisternal injection); assay type: in vivo, Swiss Hausche mice; details: D-Serine (100 μg) alone, ± SEM
Method: Male Swiss Hausche mice (25-30 g) were injected intracisternally (i.c.t.) with glycine agonists 10 minutes prior to sacrifice by focussed microwave irradiation. Compounds of the invention were injected intracisternally 2 minutes prior to the agonist. For intracisternal injections, al agonists were dissolved in HCl and diluted with isotonic saline prior to adjustment of the pH to between 6 and 7 with NaOH. The compounds of the invention were dissolved in isotonic saline and all compounds were administered in a volume of 5 μl.
Hydrochloric acid in extracts of the cerebellum were freeze-dried for assay of cGMP with a commercial RIA kit (NEN). Protein determinations (Lowery) and statistics (Dunett's t-test) were performed as described previously [P. L. Wcod et al., Neurochem., 19, 975-982 (1980)]. Groups consisted of 7-10 mice.

[6] = target: N-methyl-D-aspartate (NMDA) receptor site; experiment: Glutamate (NMDA) binding assay, L-[3H]glutamate, synaptic plasma membranes; details: L-[3H]glutamate 12.5 nM, pH 7.4, 0-4° C.; read-out: Ki apparent, NMDA
Method: The purpose of this assay is to determine the binding affinity of a compound of Formula I for the N-methyl-D-aspartate (NMDA) receptor site. This procedure was carried out as follows:
Synaptic plasma membranes (SPM) were prepared as previously described [Monahan, J. B. and Michel, J., "Identification and Characterization of an N-methyl-D-aspartate-specific L-[^3 H]glutamate Recognition Site in Synaptic Plasma Membranes, J. Neurochem., 48, 1699-1708 (1987)]. The SPM were stored at a concentration of 10-15 mg/ml in 0.32 M sucrose, 0.5 mM EDTA, 1 mM MgSO4, 5 mM Tris/SO4, pH 7.4, under liquid nitrogen. The identity and purity of the subcellular fractions were confirmed by both electron microscopy and marker enzymes. Protein concentrations were determined by using a modification of the method of Lowry [Ohnishi, S. T. and Barr, J. K., "A Simplified Method of Quantitating Proteins Using the Biuret and Phenol Reagents", Anal. Biochem., 86, 193-197 (1978)]. The SPM were thawed at room temperature, diluted twenty-fold with 50 mM Tris/acetate, pH 7.4, incubated at 37° C. for 30 minutes, and centrifuged at 100,000 g for 15 minutes. The dilution, incubation, and centrifugation was repeated a total of three times. This general method involved adding 12.5 nM of the L-[^3 H]glutamate radioligand to the appropriate concentration of the test compound and initiating the assay by the addition of ice cold SPM (0.2-0.45 mg). The binding assays were performed in 1.5 ml centrifuge tubes with the total volume adjusted to 1.0 ml. Additions of test compounds were made in 50 mM Tris/acetate, pH 7.4 and incubations were carried out at 0°-4° C. The incubation time for the NMDA binding assay was 10 minutes. To terminate the incubation, the samples were centrifuged for 15 minutes at 12,000 g and 4° C. in a Beckman Microfuge 12. The supernatant was aspirated and the pelleted membranes dissolved in Beckman Ready-Protein scintillation cocktail and the samples counted on a Beckman LS 5800 or 3801 liquid scintillation counter with automatic corrections for quenching and counting efficiency. Nonspecific binding was defined as the residual binding in the presence of 0.5 mM NMDA and was typically 15-25% of the total binding in the NMDA binding assay. Radioligand binding to the SPM was analyzed using Scatchard and Hill transformations and the Ki values of the compounds determined using logit-log transformations. Calculations and regression analysis were performed using templates developed for Lotus 1, 2, 3 as previously described [Pullan, L. M. "Automated Radioligand Receptor Binding Analysis with Templates for Lotus", Computer Appln. Biosci., 3 131 (1987)]. Binding results are reported in Table II for example compounds of the invention.

[7] = IC50, 1.0 μM Gly, 1.0 μM glycine

Ki [2] [µM] | IC50 [3, 7] [µM] | IC50 ([3]; IC50, 10 μM Gly, 10 μM glycine) [µM] | SMILES | NMDA antagonist activity [1] | reversal of NMDA antagonist activity / blocking effect by glycine [1] | other results
 |  |  | O=C(O)c1cc(O)c2ccc(Cl)cc2n1 [7-chlorokynurenic acid] | NMDA antagonist | blocking effect can be reversed by glycine | 
3.9 | 4.5 ± 0.5 | 68.5 ± 13.5 | CC(C)OC(=O)Cc1c(C(=O)O)[nH]c2cc(Cl)ccc12 [Compound No. 35, 2-propyl 2-carboxy-6-chloro-3-indoleacetate] |  |  | activity at 300 µM ([4]; read-out: Burst duration): 19.2%; activity at 300 µM ([4]; read-out: Primary population spike amplitude): 82.1%; activity at 300 µM ([4]; read-out: Spontaneous activity): 0%; activity at 300 µM ([4]; read-out: Sum of additional population spike amplitude): 35.6%
 |  |  | N[C@H](CO)C(=O)O [D-Serine, reference compound] |  |  | Cerebellar cGMP [5]: 17.5 ± 2.4 pmol/mg protein
0.47 | 1.6 ± 0.01 | 16.1 ± 1.4 | CCOC(=O)Cc1c(C(=O)O)[nH]c2cc(Cl)ccc12 [compound 31, ethyl 2-carboxy-6-chloro-3-indoleacetate] |  |  | Ki [6]: > 100 µM
1.2 | 3.4 ± 0.9 |  | NC(=O)Cc1c(C(=O)O)[nH]c2cc(Cl)ccc12 [compound 37, 2-carboxy-6-chloro-3-indoleacetamide] |  |  | 
 |  |  | O=C(O)c1cc(O)c2ccccc2n1 [kynurenic acid, 2-carboxy-4-hydroxyquinoline] | known NMDA antagonist | can be reversed by the presence of glycine | 

From US5229413A, “Compositions containing indole-2-carboxylate compounds for treatment of CNS disorders” (G. D. Searle & Co., priority 1992, dated 1993)
